Results taken from patent publication US20050004126A1 (priority 2001, published 2005).

Target: MMP-13CD (catalytic domain of collagenase 3) (Homo sapiens, UniProt P45452)
Experiment: biochemical
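Also: inhibition of enzymatic thiopeptolide substrate cleavage (100 µM) in pH 6.0 MES buffer with CaCl2 and DTNB, comparing hydrolysis with versus without inhibitor.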

O=C(OCc1ccncc1)c1cnc2[nH]c(=O)n(Cc3ccccc3)c(=O)c2c1 [4-Pyridylmethyl 3-benzyl-2,4-dioxo-1,2,3,4-tetrahydropyrido[2,3-d]-pyrimidine-6-carboxylate]
IC50: 62 nM

O=C(OCc1ccccc1)c1ccc2c(c1)c(=O)n(Cc1ccncc1)c(=O)n2Cc1ccccc1 [Benzyl 1-benzyl-2,4-dioxo-3-pyrid-4-ylmethyl-1,2,3,4-tetrahydroquin-azoline-6-carboxylate]
IC50: 1210 nM

O=C(OCc1ccccc1)c1cnc2[nH]c(=O)n(Cc3ccccc3)c(=O)c2c1 [Benzyl 3-benzyl-2,4-dioxo-1,2,3,4-tetrahydropyrido[2,3-d]pyrimidine-6-carboxylate]
IC50: 96 nM

COC(=O)c1ccc(CNC(=O)c2ccc3c(c2)c(=O)n(Cc2ccccc2)c(=O)n3C)cc1 [Methyl 4-({[1-(3-benzyl-1-methyl-2,4-dioxo-1,2,3,4-tetrahydroquin-azolin-6-yl)methanoyl]amino}methyl)benzoate]
IC50: 2250 nM

O=C(NCc1ccccc1)c1ccc2[nH]c(=O)n(Cc3ccccc3)c(=O)c2c1 [Synthesis Example 22, 3-Benzyl-2,4-dioxo-1,2,3,4-tetrahydroquinazoline-6-carboxylic acid benzylamide]
IC50: 193 nM

O=C(NCc1ccc2c(c1)OCO2)c1ccc2[nH]c(=O)n(Cc3ccccc3)c(=O)c2c1 [Synthesis Example 23, 3-Benzyl-2,4-dioxo-1,2,3,4-tetrahydroquinazoline-6-carboxylic acid (benzo[1,3]dioxol-5-ylmethyl)amide]
IC50: 21 nM

Cn1c(=O)n(Cc2ccccc2)c(=O)c2cc(C(=O)NCc3ccc4c(c3)OCO4)ccc21 [Synthesis Example 24]
IC50: 5 nM

COc1cc(CNC(=O)c2ccc3c(c2)c(=O)n(Cc2ccccc2)c(=O)n3C)ccc1O [Synthesis Example 25, 3-Benzyl-1-methyl-2,4-dioxo-1,2,3,4-tetrahydroquinazoline-6-carboxylic acid 4-hydroxy-3-methoxybenzylamide]
IC50: 51 nM

COc1ccc(CNC(=O)c2ccc3c(c2)c(=O)n(Cc2ccccc2)c(=O)n3C)cc1 [Synthesis Example 26, 3-Benzyl-1-methyl-2,4-dioxo-1,2,3,4-tetrahydroquinazoline-6-carboxylic acid 4-methoxybenzylamide]
IC50: 12 nM

COc1ccc(Cn2c(=O)[nH]c3ccc(C(=O)NCc4ccc5c(c4)OCO5)cc3c2=O)cc1 [Synthesis Example 27, 3-(4-Methoxybenzyl)-2,4-dioxo-1,2,3,4-tetrahydroquinazoline-6-carboxylic acid (benzo[1,3]dioxol-5-ylmethyl)amide]
IC50: 15 nM

COc1ccc(Cn2c(=O)c3cc(C(=O)NCc4ccc5c(c4)OCO5)ccc3n(C)c2=O)cc1 [Synthesis Example 28, 3-(4-Methoxybenzyl)-1-methyl-2,4-dioxo-1,2,3,4-tetrahydroquinazoline-6-carboxylic acid (benzo[1,3]dioxol-5-ylmethyl)amide]
IC50: 9 nM

COc1ccc(CNC(=O)c2ccc3c(c2)c(=O)n(Cc2ccc(OC)cc2)c(=O)n3C)cc1 [Synthesis Example 29, 3-(4-Methoxybenzyl)-1-methyl-2,4-dioxo-1,2,3,4-tetrahydroquinazoline-6-carboxylic acid 4-methoxybenzylamide]
IC50: 10 nM

O=C(NCc1ccc2c(c1)OCO2)c1ccc2[nH]c(=O)n(Cc3cccs3)c(=O)c2c1 [Synthesis Example 30, 2,4-Dioxo-3-(thien-2-ylmethyl)-1,2,3,4-tetrahydroquinazoline-6-carboxylic acid (benzo[1,3]dioxol-5-ylmethyl)amide]
IC50: 29 nM

Cn1c(=O)n(Cc2cccs2)c(=O)c2cc(C(=O)NCc3ccc4c(c3)OCO4)ccc21 [Synthesis Example 31, 1-Methyl-2,4-dioxo-3-(thien-2-ylmethyl)-1,2,3,4-tetrahydroquinazoline-6-carboxylic acid (benzo[1,3]dioxol-5-ylmethyl)amide]
IC50: 9 nM

O=C(NCc1ccc2c(c1)OCO2)c1ccc2[nH]c(=O)n(Cc3ccc(Cl)cc3)c(=O)c2c1 [Synthesis Example 32, 3-(4-Chlorobenzyl)-2,4-dioxo-1,2,3,4-tetrahydroquinazoline-6-carboxylic acid (benzo[1,3]dioxol-5-ylmethyl)amide]
IC50: 28 nM

Cn1c(=O)n(Cc2ccc(Cl)cc2)c(=O)c2cc(C(=O)NCc3ccc4c(c3)OCO4)ccc21 [Synthesis Example 33, 3-(4-Chlorobenzyl)-1-methyl-2,4-dioxo-1,2,3,4-tetrahydroquinazoline-6-carboxylic acid (benzo[1,3]dioxol-5-ylmethyl)amide]
IC50: 9 nM

O=C(NCc1ccc2c(c1)OCO2)c1ccc2[nH]c(=O)n(Cc3ccc4c(c3)OCO4)c(=O)c2c1 [Synthesis Example 34, 3-(Benzo[1,3]dioxol-5-ylmethyl)-2,4-dioxo-1,2,3,4-tetrahydroquinazoline-6-carboxylic acid (benzo[1,3]dioxol-5-ylmethyl)amide]
IC50: 17 nM

Cn1c(=O)n(Cc2ccc3c(c2)OCO3)c(=O)c2cc(C(=O)NCc3ccc4c(c3)OCO4)ccc21 [Synthesis Example 35, 3-(Benzo[1,3]dioxol-5-ylmethyl)-1-methyl-2,4-dioxo-1,2,3,4-tetrahydroquinazoline-6-carboxylic acid (benzo[1,3]dioxol-5-ylmethyl)amide]
IC50: 3 nM

CCn1c(=O)n(Cc2ccccc2)c(=O)c2cc(C(=O)NCc3ccc4c(c3)OCO4)ccc21 [Synthesis Example 36, 3-Benzyl-1-ethyl-2,4-dioxo-1,2,3,4-tetrahydroquinazoline-6-carboxylic acid (benzo[1,3]dioxol-5-ylmethyl)amide]
IC50: 26 nM

Cn1c(=O)[nH]c(=O)c2cc(C(=O)NCc3ccc4c(c3)OCO4)ccc21 [Synthesis Example 37, 1-Methyl-2,4-dioxo-1,2,3,4-tetrahydroquinazoline-6-carboxylic acid (benzo[1,3]dioxol-5-ylmethyl)amide]
IC50: 920 nM

COC(=O)c1ccc(Cn2c(=O)c3cc(C(=O)NCc4ccc(OC)cc4)ccc3n(C)c2=O)cc1 [Synthesis Example 38, 4-[6-(4-Methoxy-benzylcarbamoyl)-1-methyl-2,4-dioxo-1,4-dihydro-2H-quinazolin-3-ylmethyl]-benzoic acid methyl ester]
IC50: 4 nM

Cn1c(=O)n(C/C=C/c2ccccc2)c(=O)c2cc(C(=O)NCc3ccc4c(c3)OCO4)ccc21 [Synthesis Example 40, 1-Methyl-2,4-dioxo-3-((E)-3-phenylallyl)-1,2,3,4-tetrahydroquinazoline-6-carboxylic acid (benzo[1,3]dioxol-5-ylmethyl)amide]
IC50: 22 nM

O=C(OCc1ccccc1)c1ccc2[nH]c(=O)n(Cc3ccccc3)c(=O)c2c1 [Synthesis Example 41, Benzyl 3-benzyl-2,4-dioxo-1,2,3,4-tetrahydroquinazoline-6-carboxylate]
IC50: 29 nM

Cn1c(=O)n(Cc2ccccc2)c(=O)c2cc(C(=O)OCc3ccccc3)ccc21 [Synthesis Example 42, Benzyl 3-benzyl-1-methyl-2,4-dioxo-1,2,3,4-tetrahydroquinazoline-6-carboxylate]
IC50: 31 nM

O=C(OCc1ccncc1)c1ccc2[nH]c(=O)n(Cc3ccccc3)c(=O)c2c1 [Synthesis Example 43, 4-Pyridylmethyl 3-benzyl-2,4-dioxo-1,2,3,4-tetrahydroquinazoline-6-carboxylate]
IC50: 11 nM

Cn1c(=O)n(Cc2ccccc2)c(=O)c2cc(C(=O)OCc3ccncc3)ccc21 [Synthesis Example 44, 4-Pyridylmethyl 3-benzyl-1-methyl-2,4-dioxo-1,2,3,4-tetrahydroquinazoline-6-carboxylate]
IC50: 4 nM

O=C(OCc1ccc2c(c1)OCO2)c1ccc2[nH]c(=O)n(Cc3ccccc3)c(=O)c2c1 [Synthesis Example 45, Benzo[1,3]dioxol-5-ylmethyl 3-benzyl-2,4-dioxo-1,2,3,4-tetrahydroquinazoline-6-carboxylate]
IC50: 7 nM

Cn1c(=O)n(Cc2ccccc2)c(=O)c2cc(C(=O)OCc3ccc4c(c3)OCO4)ccc21 [Synthesis Example 46, Benzo[1,3]dioxol-5-ylmethyl 3-benzyl-1-methyl-2,4-dioxo-1,2,3,4-tetrahydroquinazoline-6-carboxylate]
IC50: 2.5 nM

O=C(OCc1ccncc1)c1ccc2[nH]c(=O)n(Cc3cccs3)c(=O)c2c1 [Synthesis Example 47, 4-Pyridylmethyl 2,4-dioxo-3-thien-2-ylmethyl-1,2,3,4-tetrahydroquinazoline-6-carboxylate]
IC50: 16 nM

Cn1c(=O)n(Cc2ccccc2)c(=O)c2cc(C(=O)NCc3ccc4c(c3)OCO4)cnc21 [Synthesis Example 49, 3-Benzyl-1-methyl-2,4-dioxo-1,2,3,4-tetrahydro-pyrido[2,3-d]pyrimidine-6-carboxylic acid (1,3-benzodioxol-5-ylmethyl)-amide]
IC50: 7 nM

COc1ccc(CNC(=O)c2cnc3c(c2)c(=O)n(Cc2ccc(C(=O)O)cc2)c(=O)n3C)cc1 [Synthesis Example 50, 4-[6-(4-Methoxy-benzylcarbamoyl)-1-methyl-2,4-dioxo-1,4-dihydro-2H-pyrido[2,3-d]pyrimidin-3-ylmethyl]-benzoic acid]
IC50: 1.6 nM

COc1ccc(CNC(=O)c2cnc3c(c2)c(=O)n(Cc2ccc(C#N)cc2)c(=O)n3C)cc1 [Synthesis Example 51, 3-(4-Cyano-benzyl)-1-methyl-2,4-dioxo-1,2,3,4-tetrahydro-pyrido[2,3-d]pyrimidine-6-carboxylic acid 4-methoxy-benzylamide]
IC50: 16 nM

COc1ccc(CNC(=O)c2cnc3c(c2)c(=O)n(Cc2ccc(F)cc2)c(=O)n3C)cc1 [Synthesis Example 52, 3-(4-Fluoro-benzyl)-1-methyl-2,4-dioxo-1,2,3,4-tetrahydro-pyrido[2,3-d]pyrimidine-6-carboxylic acid 4-methoxy-benzylamide]
IC50: 32 nM

Cn1c(=O)n(Cc2ccccc2)c(=O)c2cc(C(=O)NCc3ccc4c(c3)OCO4)ncc21 [Synthesis Example 53, 3-Benzyl-1-methyl-2,4-dioxo-1,2,3,4-tetrahydro-pyrido[3,4-d]pyrimidine-6-carboxylic acid (1,3-benzodioxol-5-ylmethyl)-amide]
IC50: 1 nM
